For assay [1], the system named is Serine/threonine-protein kinase B-raf (Homo sapiens), P15056 [V600E]. Nature of the assay: Inhibition of BRAF V600E mutant at 1 uM by ELISA.
The test system is the same in assay [2]. As to the kind of experiment: Inhibition of BRAF V600E mutant at 10 uM by ELISA.
In assay [3] the target is Serine/threonine-protein kinase B-raf (Homo sapiens, UniProt P15056, V600E). As to the kind of experiment: Inhibition of BRAF V600E mutant by ELISA. (An ELISA detects its analyte on a solid surface through an enzyme-linked reagent.)

A value given as a limit tells only on which side of the number the result lay.

Serine/threonine-protein kinase B-raf (Homo sapiens), P15056 [V600E], sequence (P15056 whole entry V600E): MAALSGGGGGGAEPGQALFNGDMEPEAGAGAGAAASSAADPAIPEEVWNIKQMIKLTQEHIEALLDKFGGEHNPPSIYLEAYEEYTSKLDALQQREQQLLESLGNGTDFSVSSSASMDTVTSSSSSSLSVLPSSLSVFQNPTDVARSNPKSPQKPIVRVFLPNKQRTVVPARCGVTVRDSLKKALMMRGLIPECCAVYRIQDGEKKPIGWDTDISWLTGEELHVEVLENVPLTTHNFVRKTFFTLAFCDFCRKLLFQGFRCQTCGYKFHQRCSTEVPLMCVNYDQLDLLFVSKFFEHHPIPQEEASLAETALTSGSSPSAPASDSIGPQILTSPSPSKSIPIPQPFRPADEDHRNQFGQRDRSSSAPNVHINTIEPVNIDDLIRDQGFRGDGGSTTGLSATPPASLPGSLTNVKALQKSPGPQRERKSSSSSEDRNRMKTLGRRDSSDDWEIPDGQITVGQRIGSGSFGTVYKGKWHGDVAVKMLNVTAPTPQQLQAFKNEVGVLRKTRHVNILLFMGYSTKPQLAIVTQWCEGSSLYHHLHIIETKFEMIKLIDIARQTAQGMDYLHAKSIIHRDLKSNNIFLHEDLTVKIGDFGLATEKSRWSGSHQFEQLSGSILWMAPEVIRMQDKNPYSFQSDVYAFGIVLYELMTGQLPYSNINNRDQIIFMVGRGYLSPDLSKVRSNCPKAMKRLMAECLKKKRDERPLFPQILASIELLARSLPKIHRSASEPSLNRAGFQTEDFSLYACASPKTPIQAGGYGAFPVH
Serine/threonine-protein kinase B-raf, sequence (P15056 2-766 V600E limits assumed): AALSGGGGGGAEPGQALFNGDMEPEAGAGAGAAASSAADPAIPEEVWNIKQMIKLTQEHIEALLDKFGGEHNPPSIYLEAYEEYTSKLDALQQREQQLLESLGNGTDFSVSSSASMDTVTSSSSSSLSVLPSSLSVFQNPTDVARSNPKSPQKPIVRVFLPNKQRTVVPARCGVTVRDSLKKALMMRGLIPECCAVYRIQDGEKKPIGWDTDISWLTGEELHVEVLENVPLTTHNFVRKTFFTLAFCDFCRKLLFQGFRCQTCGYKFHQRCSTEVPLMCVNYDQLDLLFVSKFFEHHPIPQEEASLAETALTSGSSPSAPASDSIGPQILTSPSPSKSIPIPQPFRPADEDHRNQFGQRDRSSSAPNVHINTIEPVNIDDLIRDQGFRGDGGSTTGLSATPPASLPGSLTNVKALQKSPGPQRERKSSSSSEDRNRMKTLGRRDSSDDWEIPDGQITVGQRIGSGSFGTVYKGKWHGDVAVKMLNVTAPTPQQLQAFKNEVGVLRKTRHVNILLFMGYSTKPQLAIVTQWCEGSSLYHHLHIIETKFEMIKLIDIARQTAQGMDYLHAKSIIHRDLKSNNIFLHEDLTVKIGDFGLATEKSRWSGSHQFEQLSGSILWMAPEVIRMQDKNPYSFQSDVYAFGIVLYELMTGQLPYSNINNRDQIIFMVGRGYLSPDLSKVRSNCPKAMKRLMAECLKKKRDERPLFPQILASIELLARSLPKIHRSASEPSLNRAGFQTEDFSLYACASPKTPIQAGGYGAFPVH

Broadly, the inhibition is the percentage by which the read-out fell short of the control. A high value points to a response far below the control. For orientation: IC50 means the concentration needed to halve the response being measured. As for `Cc1ccc(N2C(=O)/C(=C\c3ccc(-c4ccc(C(=O)O)c(Cl)c4)o3)C(=O)NC2=S)cc1`, the inhibition in assay [1] stood at 28%; in assay [2], 99%. This molecule displayed a half-maximal inhibitory concentration (IC50) in assay [3] of 3.24 µM.

As to `COc1cccc(N2C(=O)/C(=C\c3ccc(CN(CCC#N)S(C)(=O)=O)o3)C(=O)NC2=S)c1`, the inhibition in assay [1] turned out to be 32%; in assay [2], 74%. For the same molecule, in assay [3], the IC50 was 1.84 µM.

In the case of `COC(=O)c1cc(Br)ccc1-c1ccc(C=C2C(=O)NC(=S)NC2=O)o1`, the results for the inhibition in assay [1] and in assay [2] were 61% and 86%, respectively.

As to `CCN(C)c1ccc(-c2ccc(C=C3C(=O)NC(=S)NC3=O)cc2)cc1`, the inhibition in assay [1] and in assay [2] was less than 5% in each case.

Take `O=C1NC(=S)NC(=O)C1=Cc1ccc(-c2ccc([N+](=O)[O-])cc2)o1`: the inhibition in assay [1] was determined as 59%; in assay [2], 91%. This molecule also yielded an IC50 in assay [3] of 0.73 µM.

For `Cc1ccc(Cl)cc1-c1ccc(C=C2C(=O)NC(=S)NC2=O)o1`, the inhibition in assay [1] is 54%; in assay [2], 75%.

`O=C1NC(=S)N(c2ccc(Br)cc2)C(=O)/C1=C\c1ccc(-c2ccc(C(=O)O)cc2)o1`: the inhibition turned out to be 38% in assay [1] and 97% in assay [2]. This molecule returned an IC50 in assay [3] of 2.23 µM.

On to `O=C1NC(=S)N(c2ccc(Br)cc2)C(=O)/C1=C\c1ccc(-c2cccc(C(=O)O)c2)o1`, for which the inhibition in assay [1] turned out to be 43%; in assay [2] it was 100%. The same molecule yielded an IC50 in assay [3] of 1.8 µM.

Consider `O=C1NC(=S)N(c2cccc(Cl)c2Cl)C(=O)/C1=C\c1ccc(-c2ccc(C(=O)O)cc2)o1`, for which the inhibition in assay [1] is 46%; in assay [2], 100%. The IC50 in assay [3] is 1.54 µM.

Take `COc1cc(C=C2C(=O)NC(=S)NC2=O)ccc1OCCC(C)C`: the inhibition in assay [1] worked out at 21%; in assay [2] it was 81%.

For the molecule `CCOc1cc(C=C2C(=O)NC(=S)NC2=O)ccc1O`, the figures for the inhibition in assay [1] and in assay [2] were 15% and 68%, respectively.

With `Cc1cccc(N2C(=O)/C(=C\c3ccc(CN(CCC#N)S(C)(=O)=O)o3)C(=O)NC2=S)c1`, the inhibition in assay [1] turned out to be 55%; in assay [2], 84%. In assay [3], this molecule had an IC50 of 0.5 µM.

Turning to `Cc1ccc(N2C(=O)/C(=C\c3ccc(CN(CCC#N)S(C)(=O)=O)o3)C(=O)NC2=S)cc1`, the inhibition was 48% in assay [1] and 99% in assay [2]. The molecule also showed a 50% inhibitory concentration (IC50) in assay [3] of 0.97 µM.

As for `CCOC(=O)c1ccccc1-c1ccc(/C=C2/C(=O)NC(=S)N(c3ccc(C)cc3)C2=O)o1`, the inhibition in assay [1] came to 56%; in assay [2] it was 88%. Moreover, in assay [3], the IC50 was found to be 1.02 µM.

`O=C1NC(=S)NC(=O)C1=Cc1ccc(Oc2ccc([N+](=O)[O-])cn2)cc1`: the inhibition is less than 5% in assay [1] and 41% in assay [2].

As for `COc1cc(C=C2C(=O)NC(=S)NC2=O)ccc1OC(F)F`, the values for the inhibition in assay [1] and in assay [2] were 14% and 17%, respectively.

In the case of `O=C1NC(=S)NC(=O)C1=Cc1ccc(-c2cccc([N+](=O)[O-])c2)o1`, the inhibition in assay [1] came to 48%; in assay [2], 85%. The IC50 in assay [3] turned out to be 0.83 µM.

As for `CC(C)COC(=O)c1ccc(-c2ccc(C=C3C(=O)NC(=S)NC3=O)o2)cc1`, the inhibition in assay [1] was 31%; in assay [2], 37%.

Turning to `CS(=O)(=O)N(CCC#N)Cc1ccc(/C=C2/C(=O)NC(=S)N(c3ccc(Cl)c(Cl)c3)C2=O)o1`, the inhibition in assay [1] was found to be 60%; in assay [2], 97%. In assay [3], this molecule showed an IC50 of 0.82 µM.

For `Cc1ccc(N2C(=O)/C(=C\c3ccc(-c4ccc(C(=O)O)cc4)o3)C(=O)NC2=S)cc1`, the inhibition in assay [1] turned out to be 35%; in assay [2], 97%. The IC50 in assay [3] was found to be 1.6 µM.

Take `Cc1ccc(N2C(=O)/C(=C\c3ccc(-c4ccc(F)cc4)o3)C(=O)NC2=S)cc1`: the inhibition stood at 13% in assay [1] and 74% in assay [2]. Further, half-maximal inhibition in assay [3] (IC50) was put at 4.11 µM.

`O=C1NC(=S)NC(=O)C1=Cc1ccc(-c2ccccc2[N+](=O)[O-])o1`: the inhibition in assay [1] came to 55%; in assay [2], 93%. The IC50 in assay [3] turned out to be 0.67 µM.

On to `COc1ccc(C=C2C(=O)NC(=S)NC2=O)cc1OCc1ccc(Br)cc1`, for which the inhibition in assay [1] turned out to be 12%; in assay [2], 87%.

Regarding `Cc1cccc(C)c1OCCOc1ccc(C=C2C(=O)NC(=S)NC2=O)cc1`, the inhibition was 42% in assay [1] and 95% in assay [2].

Consider `O=C1NC(=S)N(c2ccc(Br)cc2)C(=O)/C1=C\c1ccc(-c2ccccc2C(=O)O)o1`, for which the inhibition in assay [1] is 32%; in assay [2], 100%. The molecule further registered an IC50 in assay [3] of 3.45 µM.

As to `Cc1c(Cl)cccc1N1C(=O)/C(=C\c2ccc(-c3ccc(C(=O)O)cc3)o2)C(=O)NC1=S`, the inhibition worked out at 38% in assay [1] and 100% in assay [2]. Besides, the IC50 in assay [3] was found to be 2.49 µM.

As to `COc1ccc(C=C2C(=O)NC(=S)NC2=O)cc1OC(=O)c1ccc(C)cc1`, the inhibition in assay [1] is less than 5%; in assay [2] it was 38%.

Take `COc1cc(C=C2C(=O)NC(=S)NC2=O)ccc1OC(=O)c1cccc(F)c1`: the inhibition in assay [1] is less than 5%; in assay [2], 28%.

As for `COc1ccc(C=C2C(=O)NC(=S)NC2=O)cc1OC(=O)c1ccccc1`, the inhibition in assay [1] came out at 46%; in assay [2], 77%. The molecule also came in with an IC50 in assay [3] of 4.01 µM.

As for `O=C1NC(=S)N(c2ccc(Br)cc2)C(=O)/C1=C\c1ccc(-c2ccc(C(=O)O)c(Cl)c2)o1`, the inhibition turned out to be 28% in assay [1] and 89% in assay [2]. Also, the IC50 in assay [3] turned out to be 4.75 µM.

For `N#Cc1ccccc1-c1ccc(C=C2C(=O)NC(=S)NC2=O)o1`, the inhibition in assay [1] amounted to 60%; in assay [2] it was 93%. Also, the IC50 in assay [3] amounted to 0.74 µM.

Take `O=C1NC(=S)NC(=O)C1=Cc1cccc(OC(=O)c2cccc(F)c2)c1`: the inhibition in assay [1] turned out to be 17%; in assay [2], 19%.

With `Cc1ccc(N2C(=O)/C(=C\c3ccc(-c4cccc(C(=O)O)c4)o3)C(=O)NC2=S)cc1`, the values for the inhibition in assay [1] and in assay [2] were 33% and 98%, respectively. For the same molecule, the midpoint of inhibition in assay [3], the IC50, lay at 4.02 µM.

As to `O=C1NC(=S)NC(=O)C1=Cc1ccc(OCC(=O)N2CCCC2)cc1`, the inhibition in assay [1] came to 9%; in assay [2] it was 52%.

As to `CCCS(=O)(=O)Nc1ccc(F)c(C(=O)c2c[nH]c3ncc(-c4ccc(Cl)cc4)cc23)c1F`, the inhibition in assay [1] stood at 72%; in assay [2], 92%.

`COc1ccc(C=C2C(=O)NC(=S)NC2=O)cc1OC(=O)c1cccc(Cl)c1`: the inhibition in assay [1] is 9%; in assay [2] it was 88%.

For the molecule `Cc1ccc(N2C(=O)/C(=C\c3ccc(-c4ccc(Cl)c(C(=O)O)c4)o3)C(=O)NC2=S)cc1`, the inhibition came to 5% in assay [1] and 71% in assay [2].

Turning to `COc1cc(C=C2C(=O)NC(=S)NC2=O)ccc1OCCO`, the values for the inhibition in assay [1] and in assay [2] were less than 5% and 34%, respectively.

As to `Cc1ccc([N+](=O)[O-])cc1-c1ccc(C=C2C(=O)NC(=S)NC2=O)o1`, the inhibition in assay [1] was 51%; in assay [2], 57%.

For the molecule `COC(=O)c1ccccc1-c1ccc(/C=C2/C(=O)NC(=S)N(c3ccc(C)cc3)C2=O)o1`, the values for the inhibition in assay [1] and in assay [2] were 37% and 88%, respectively. In assay [3], this molecule yielded an IC50 of 1.65 µM.

As for `O=C1NC(=S)NC(=O)C1=Cc1ccc(OCc2ccccc2)c(Cl)c1`, the values for the inhibition in assay [1] and in assay [2] were 31% and 91%, respectively.

Regarding `CCOc1ccc(N2C(=O)/C(=C\c3ccc(CN(CCC#N)S(C)(=O)=O)o3)C(=O)NC2=S)cc1`, the inhibition in assay [1] was 43%; in assay [2] it was 91%. In assay [3], this molecule showed an IC50 of 1.14 µM.

With `CCOc1cc(C=C2C(=O)NC(=S)NC2=O)ccc1OCC(=O)Nc1cccc(C)c1`, the inhibition in assay [1] was 23%; in assay [2] it was 81%.

With `CS(=O)(=O)N(CCC#N)Cc1ccc(/C=C2/C(=O)NC(=S)N(c3ccc(Br)cc3)C2=O)o1`, the inhibition in assay [1] turned out to be 88%; in assay [2] it was 96%. The molecule also came in with an IC50 in assay [3] of 0.44 µM.

For the molecule `Cc1ccc(N2C(=O)/C(=C\c3ccc(CN(CCC#N)S(C)(=O)=O)o3)C(=O)NC2=S)cc1Cl`, the inhibition worked out at 68% in assay [1] and 99% in assay [2]. In assay [3], the IC50 turned out to be 0.31 µM.

Regarding `CCOc1ccc(C=C2C(=O)NC(=S)NC2=O)cc1Cl`, the values for the inhibition in assay [1] and in assay [2] were 12% and 71%, respectively.

(Values after ChEMBL document CHEMBL2069231, “Combining pharmacophore, docking and substructure search approaches to identify and optimize novel B-RafV600E inhibitors” (Bioorg Med Chem Lett, 2012).)
